This assay deals with new-onset T1D individuals. Nature of the assay: Clinical study of ingested interferon-α: residual C-peptide and microRNA signature of beta cell death. Type of assay: in vivo, human. An excerpt: In order to assess whether microRNAs could predict treatment efficacy, microRNAs were profiled from a de-identified clinical study set of samples from new-onset T1D individuals. These individuals received oral interferon-α at two doses as a therapy to preserve beta cell mass. The effect of ingested interferon-α on residual C-peptide (a measure of beta cell mass) at one year following treatment with 5000 units, 30,000 units or placebo was investigated.
Treatment groups are shown on the X-axis. The remaining beta-cell function measured as circulating C-peptide levels at 1 year (relative to baseline) are plotted on Y-axis (adjusted means, vertical bars denote 0.95 confidence intervals).

Turning to interferon-α, the “remaining beta-cell function measured as circulating C-peptide levels at 1 year (relative to baseline)” value (30,000 units ingested IFN treatment group as compared to the Control group, FIG. 13) is listed as “significant preservation of islet beta cell mass”. In addition, the “miRNA signature of beta cell death (abundance)” value (30,000 units ingested IFN treatment group, 12 months from study baseline) is “lower abundance”. Moreover, where the note is “individuals showing the highest preservation of beta-cell mass at one year of treatment, FIG. 14”, the “microRNA signature of beta cell death” value is on record as “decreased”.
